Experimental data as given in patent US11925612B2, “Bactericidal and virucidal pharmaceutical composition” (Quimica Luar SRL, priority 2015, dated 2024).
Like-named read-outs stand apart in the source and are kept apart here.

Columns and labels:
[1] = tested on: P. aeruginosa; assay: Bactericidal test: CFU count after incubation in PBS buffer; assay type: cell-based, Pseudomonas aeruginosa; details: for Colony count (UFC/mL ± 10): 4-hour contact at 37° C., Example 8; for Colony count (UFC/mL ± 10) / P. aeruginosa count (UFC/mL ± 10) As a function of treatment time: control 2,000,000; for Colony count (UFC/mL ± 10) Pseudomonas: Example 9; for P. aeruginosa count (UFC/mL ± 10) As a function of treatment time: 37° C., Example 6; for concentration at which the number of CFU/mL decreases to 1000: FIG. 11, Example 12
[2] = tested on: Escherichia coli; assay: as above; assay type: cell-based; details: 4-hour contact at 37° C., control 1,000,000, Example 8
[3] = tested on: Burkhordelia cepacia; assay type: cell-based; details: control 1,300,000; for Colony count (UFC/mL ± 10) Burkhordelia: 4 hours at 37° C., Example 9; for Colony count (UFC/mL ± 10): 4-hour contact at 37° C., Example 8
Procedure: In this case, tests were run on a non-nutritive liquid carrier (buffer solution) wherein the antimicrobial agent is mixed with quantified inocula of pure bacterial cultures. After different incubation times, the material is seeded on agar plates to perform quantification assays on the number of bacterias surviving the treatment.
When the time for each assay finished, aliquots of 100 uL and decimal dilutions of each tube which were seeded on petri dishes for the direct count of colony forming units (CFU) in Mueller Hinton agar (MHA), using pour-plating or spread-plating standard methods.
During testing, the medium was stored in thermostatic bath between 45-50° C. because the seeding technique requires imbibing and integrating bacteria in the medium.

[4] = tested on: Klebsiella pneumoniae; assay: Bactericidal test: CFU count after incubation in PBS buffer; assay type: cell-based; details: 4-hour contact at 37° C., control 1,000,000, Example 8
[5] = tested on: Staphylococcus aureus (Gram+); assay: as above; assay type: cell-based; details: control 1,000,000; for Colony count (UFC/mL ± 10) Staphylococcus: 4 hours at 37° C., Example 9; for Colony count (UFC/mL ± 10) S. aureus: 4-hour at 37° C., Example 15; for Colony count (UFC/mL ± 10): 4-hour contact at 37° C., Example 8
[6] = tested on: Pseudomonas fluorescens; assay: as above; assay type: cell-based; details: 4-hour contact at 37° C., control 100,000, Example 8
[7] = tested on: Enterococcus faecalis (Gram+); assay: as above; assay type: cell-based; details: 4-hour contact at 37° C., control 100,000, Example 8
[8] = tested on: artificial biofilm of P. aeruginosa; assay: Antimicrobial effect on artificial biofilm (2% alginate solution); assay type: cell-based, Pseudomonas aeruginosa; details: Biofilm (2% alginate) + ionic strength (1 M NaCl), 4 hours at 37° C., control 2,000,000, Example 21
Procedure: Work consisted of incubating bacterial populations of a known load in terms of CFU/mL with the compounds mentioned in different molar concentrations. In vitro test batteries were organized at different doses or concentrations and in 1.5 mL Eppendorf tubes without the addition of culture medium. To this purpose, a PBS 100 mM phosphate buffer was used to maintain physiological conditions throughout the period of each test at 37° C. […] Each plate was added with 5 uL of a solution of 2,3,5-metabolic dye triphenyltetrazolium of chloride (TTC) 1% to enhance the contrast of colonies. Plates were incubated in inverted position, in a culture stove for 24-48 hours at 37° C. and subsequently the direct count was done, adjusted by dilution factors and seeding to report results in terms of CFU/mL. […] Treatments lasted 4 hours at 37° C.

CC(C)Cc1ccc(C(C)C(=O)O)cc1.[Na] (stereo not shown) [IBU-Na, SODIUM IBUPROFEN]
P. aeruginosa (UFC/mL ± 10) ([1]; IBU-Na 30 mM, Population B (control 20,000), 4 h at 37° C., Example 5): 40 UFC/mL | P. aeruginosa (UFC/mL ± 10) ([1]; IBU-Na 40 mM, Population A (control 200,000), 4 h at 37° C., Example 5): 100 UFC/mL | Colony count (UFC/mL ± 10) P. aeruginosa ([1]; IBU-Na 50 mM + ClNa (1M), 4-hour at 37° C., control 3,000,000, Example 15): 10 UFC/mL | Colony count (UFC/mL ± 10) ([1]; IBU-Na 50 mM): 100 UFC/mL | Colony count (UFC/mL ± 10) Pseudomonas ([1]; IBU-Na 50 mM, 4 hours at 37° C., control 1,700,000): 100 UFC/mL | P. aeruginosa count (UFC/mL ± 10) As a function of treatment time ([1]; IBU-Na 50 mM, 4 hours): 30 UFC/mL | P. aeruginosa (UFC/mL ± 10) ([1]; IBU-Na 50 mM, Without ionic strength, 4 hours at 37° C., control 1,700,000, Example 12): 100 UFC/mL | P. aeruginosa (UFC/mL ± 10) ([1]; IBU-Na 50 mM, pH 7.8, 4 h at 37°, control 200,000, Example 7): 600 UFC/mL | Colony count (UFC/mL ± 10) ([1]; IBU-Na 100 mM): 10 UFC/mL | P. aeruginosa count (UFC/mL ± 10) As a function of treatment time ([1]; IBU-Na 100 mM, 1 hour): 2,000 UFC/mL | Colony count (UFC/mL ± 10) Pseudomonas ([1]; IBU-Na 100 mM, 4 hours at 37° C., control 1,700,000): 10 UFC/mL | concentration at which the number of CFU/mL decreases to 1000 ([1]; with ionic strength of NaCl 1 M, 4 hours at 37° C.): about 5 mM | concentration at which the number of CFU/mL decreases to 1000 ([1]; without ionic strength, 4 hours at 37° C.): 25 mM | Colony count (UFC/mL ± 10) ([2]; IBU-Na 50 mM): 500 UFC/mL | Colony count (UFC/mL ± 10) ([2]; IBU-Na 100 mM): 10 UFC/mL | Colony count (UFC/mL ± 10) Burkhordelia ([3]; IBU-Na 5 mM): 1,300,000 UFC/mL | Colony count (UFC/mL ± 10) Burkhordelia ([3]; IBU-Na 10 mM): 1,300,000 UFC/mL | Colony count (UFC/mL ± 10) Burkhordelia ([3]; IBU-Na 25 mM): 40,000 UFC/mL | Colony count (UFC/mL ± 10) ([3]; IBU-Na 50 mM): 680 UFC/mL | Colony count (UFC/mL ± 10) Burkhordelia ([3]; IBU-Na 50 mM): 700 UFC/mL | Colony count (UFC/mL ± 10) ([3]; IBU-Na 100 mM): 10 UFC/mL | Colony count (UFC/mL ± 10) Burkhordelia ([3]; IBU-Na 100 mM): 10 UFC/mL | Colony count (UFC/mL ± 10) ([4]; IBU-Na 50 mM): 600 UFC/mL | Colony count (UFC/mL ± 10) ([4]; IBU-Na 100 mM): 10 UFC/mL | Colony count (UFC/mL ± 10) Staphylococcus ([5]; IBU-Na 5 mM): 1,000,000 UFC/mL | Colony count (UFC/mL ± 10) Staphylococcus ([5]; IBU-Na 10 mM): 1,000,000 UFC/mL | Colony count (UFC/mL ± 10) S. aureus ([5]; IBU-Na 12.5 mM + ClNa (1M)): 100 UFC/mL | Colony count (UFC/mL ± 10) S. aureus ([5]; IBU-Na 25 mM + ClNa (1M)): 10 UFC/mL | Colony count (UFC/mL ± 10) Staphylococcus ([5]; IBU-Na 25 mM): 30,000 UFC/mL | Colony count (UFC/mL ± 10) S. aureus ([5]; IBU-Na 50 mM + ClNa (1M)): 10 UFC/mL | Colony count (UFC/mL ± 10) ([5]; IBU-Na 50 mM): 550 UFC/mL | Colony count (UFC/mL ± 10) Staphylococcus ([5]; IBU-Na 50 mM): 600 UFC/mL | Colony count (UFC/mL ± 10) ([5]; IBU-Na 100 mM): 10 UFC/mL | Colony count (UFC/mL ± 10) Staphylococcus ([5]; IBU-Na 100 mM): 10 UFC/mL | Colony count (UFC/mL ± 10) ([6]; IBU-Na 50 mM): 150 UFC/mL | Colony count (UFC/mL ± 10) ([6]; IBU-Na 100 mM): 10 UFC/mL | Colony count (UFC/mL ± 10) ([7]; IBU-Na 50 mM): 180 UFC/mL | Colony count (UFC/mL ± 10) ([7]; IBU-Na 100 mM): 10 UFC/mL | P. aeruginosa (UFC/mL ± 10) ([8]; 10 mM): 25,000 UFC/mL | P. aeruginosa (UFC/mL ± 10) ([8]; 25 mM): 200 UFC/mL
